Assays:
[1] = target: T1, Plasmodium vivax guanylate kinase (PvGK) (Plasmodium vivax, UniProt A5K709); assay: native ESI-FT-ICR-MS titration (optimized source conditions); type: binding
T1 construct: gene PVX_099895; Full-length guanylate kinase with an N-terminal 6-histidine tag (23545 Da)

[2] = target: T1, Plasmodium vivax guanylate kinase (PvGK); assay: native ESI-FT-ICR-MS titration (optimized source); confirmed by competition with GMP ([…]); type: binding

T1 sequence (A5K709 entry or part of it): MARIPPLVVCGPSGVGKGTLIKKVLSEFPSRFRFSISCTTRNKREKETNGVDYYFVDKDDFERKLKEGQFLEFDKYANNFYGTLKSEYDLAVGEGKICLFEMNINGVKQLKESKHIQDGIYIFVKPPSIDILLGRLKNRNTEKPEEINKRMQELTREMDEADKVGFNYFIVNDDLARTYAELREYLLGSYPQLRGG

| Structure (SMILES) | Kd [1] | Kd [2] |
| --- | --- | --- |
| Nc1nc2c(ncn2[C@@H]2O[C@H](COP(=O)(O)O)[C@@H](O)[C@H]2O)c(=O)[nH]1 [GMP] | 1840 ± 110 nM | – |
| Nc1nc2c(ncn2[C@@H]2O[C@H](COP(=O)(O)OP(=O)(O)O)[C@@H](O)[C@H]2O)c(=O)[nH]1 [GDP] | – | 300 ± 30 nM |

Reference: PMC4972871, “Optimization of Electrospray Ionization by Statistical Design of Experiments and Response Surface Methodology: Protein–Ligand Equilibrium Dissociation Constant Determinations” (Journal of the American Society for Mass Spectrometry, 2016)
